Experimental data reported in US11491120B2, “Pharmacological prophylactics against stress-induced affective disorders in females” (The Trustees of Columbia University in the City of New York, priority 2017, dated 2022).
Entries after “also recorded” stand apart in the source; their conditions may differ.

Assays:
[1] = system: female 129S6/SvEv mice; test: Forced swim test after 10-day chronic immobilization stress (CIS); format: in vivo, mouse; details: 10 mg/kg, 1 week prophylactic drug
Experimental: The CIS procedure induces a depressive-like phenotype in test subjects and has both predictive and face validity (54). Here, we used an adapted protocol from Ramirez et al. (55).
As previously tested in male mice (18), we validated our findings in a model of chronic stress. […] Drug dosages were chosen based on results from FIG. 1 and used for the remainder of the project unless otherwise specified. One week later, a 10-day CIS protocol was administered. Subsequently, mice were tested in the FST.

[2] = system: female 129S6/SvEv mice; test: Forced swim test (FST), immobility time, after stress; details: for p, Sal vs. drug, Fisher's PLSD: Immobility Time (min 1-6), Forced Swim Test Day 2 / p, Sal vs. drug, Fisher's PLSD: Immobility Time Average (min 3-6), Forced Swim Test Day 2: 3 day prophylactic drug
[3] = 2.5 mg/kg, 1 week prophylactic drug
[4] = 10 mg/kg, 1 week prophylactic drug
[5] = 10 mg/kg, 1 week prophylactic drug, learned helplessness stress
[6] = 30 mg/kg, 1 week prophylactic drug
[7] = Forced Swim Test Day 1, Dunnett test Sal vs. drug (2.5), 1 week prophylactic drug
[8] = Forced Swim Test Day 1, Dunnett test Sal vs. drug (10), 1 week prophylactic drug

## CNC1(c2ccccc2Cl)CCCCC1=O (racemic) [(R,S)-ketamine, (RS)-2-(2-chlorophenyl)-2-(methylamino)cyclohexanone]
[1]
  * (significance), Sal vs. drug, Fisher's PLSD: Immobility Time (min 2), Forced Swim Test Day 2: * (* p<0.05)
  * (significance), Sal vs. drug, Fisher's PLSD: Immobility Time (min 5), Forced Swim Test Day 2: ** (** p<0.01)
  * (significance), Sal vs. drug, Fisher's PLSD: Immobility Time (min 6), Forced Swim Test Day 1: ** (** p<0.01)
  * (significance), Sal vs. drug, Fisher's PLSD: Immobility Time (min 6), Forced Swim Test Day 2: ** (** p<0.01)
  * (significance), Sal vs. drug, Fisher's PLSD: Immobility Time Average (min 3-6), Forced Swim Test Day 2: ** (** p<0.01)
  p, Sal vs. drug, Fisher's PLSD: Immobility Time (min 1), Forced Swim Test Day 1: 0.1619
  p, Sal vs. drug, Fisher's PLSD: Immobility Time (min 1), Forced Swim Test Day 2: 0.0533
  p, Sal vs. drug, Fisher's PLSD: Immobility Time (min 2), Forced Swim Test Day 1: 0.4051
  p, Sal vs. drug, Fisher's PLSD: Immobility Time (min 2), Forced Swim Test Day 2: 0.0325
  p, Sal vs. drug, Fisher's PLSD: Immobility Time (min 3), Forced Swim Test Day 1: 0.5575
  p, Sal vs. drug, Fisher's PLSD: Immobility Time (min 4), Forced Swim Test Day 1: 0.4015
  p, Sal vs. drug, Fisher's PLSD: Immobility Time (min 5), Forced Swim Test Day 1: 0.4985
  p, Sal vs. drug, Fisher's PLSD: Immobility Time (min 5), Forced Swim Test Day 2: 0.0011
  p, Sal vs. drug, Fisher's PLSD: Immobility Time (min 6), Forced Swim Test Day 1: 0.0022
  p, Sal vs. drug, Fisher's PLSD: Immobility Time (min 6), Forced Swim Test Day 2: 0.0006
  p, Sal vs. drug, Fisher's PLSD: Immobility Time Average (min 3-6), Forced Swim Test Day 2: 0.0005
  p, Sal vs. drug, Fishers PLSD: Immobility Time Average (min 1-6), Forced Swim Test Day 1: 0.1873
[2]; [3]
  p, Sal vs. drug, Dunnett test: Immobility Time (min 1), Forced Swim Test Day 2: 0.5849
  p, Sal vs. drug, Dunnett test: Immobility Time (min 1-6), Forced Swim Test Day 2: 0.8314
  p, Sal vs. drug, Dunnett test: Immobility Time (min 2), Forced Swim Test Day 2: 0.9770
  p, Sal vs. drug, Dunnett test: Immobility Time (min 4), Forced Swim Test Day 2: 0.9997
  p, Sal vs. drug, Dunnett test: Immobility Time (min 5), Forced Swim Test Day 2: 0.9999
  p, Sal vs. drug, Dunnett test: Immobility Time (min 6), Forced Swim Test Day 2: 0.9686
  p, Sal vs. drug, Dunnett test: Immobility Time Average (min 3-6), Forced Swim Test Day 2: 0.9990
[2]; 2.5 mg/kg
  p, Sal vs. drug, Fisher's PLSD: Immobility Time (min 1-6), Forced Swim Test Day 2: 0.1441
  p, Sal vs. drug, Fisher's PLSD: Immobility Time Average (min 3-6), Forced Swim Test Day 2: 0.3992
[2]; [4]
  * (significance), Sal vs. drug, Dunnett test: Immobility Time (min 1-6), Forced Swim Test Day 2: ** (** p<0.01)
  * (significance), Sal vs. drug, Dunnett test: Immobility Time (min 4), Forced Swim Test Day 2: * (* p<0.05)
  * (significance), Sal vs. drug, Dunnett test: Immobility Time (min 5), Forced Swim Test Day 2: * (* p<0.05)
  * (significance), Sal vs. drug, Dunnett test: Immobility Time Average (min 3-6), Forced Swim Test Day 2: ** (** p<0.01)
  p, Sal vs. drug, Dunnett test: Immobility Time (min 1), Forced Swim Test Day 2: 0.0825
  p, Sal vs. drug, Dunnett test: Immobility Time (min 1-6), Forced Swim Test Day 2: 0.0006
  p, Sal vs. drug, Dunnett test: Immobility Time (min 2), Forced Swim Test Day 2: 0.0675
  p, Sal vs. drug, Dunnett test: Immobility Time (min 4), Forced Swim Test Day 2: 0.0144
  p, Sal vs. drug, Dunnett test: Immobility Time (min 5), Forced Swim Test Day 2: 0.0149
  p, Sal vs. drug, Dunnett test: Immobility Time (min 6), Forced Swim Test Day 2: 0.3306
  p, Sal vs. drug, Dunnett test: Immobility Time Average (min 3-6), Forced Swim Test Day 2: 0.0062
[2]; [5]
  * (significance), Sal vs. drug, Fisher's PLSD: Immobility Time Average (min 3-6), Forced Swim Test Day 2: *** (*** p<0.0001)
  P, Sal vs. drug, Fisher's PLSD: Immobility Time Average (min 3-6), Forced Swim Test Day 2: <0.0001
[2]; 10 mg/kg
  p, Sal vs. drug, Fisher's PLSD: Immobility Time (min 1-6), Forced Swim Test Day 2: 0.1807
  p, Sal vs. drug, Fisher's PLSD: Immobility Time Average (min 3-6), Forced Swim Test Day 2: 0.4394
[2]; 10 mg/kg, injection one hour prior to FST Day 1, female mice
  Immobility on FST Day 2, first minute, vs saline: significantly less immobile compared to saline mice; also recorded: significantly less immobile than saline mice during the first minute
[2]; [6]
  p, Sal vs. drug, Dunnett test: Immobility Time (min 1), Forced Swim Test Day 2: 0.9167
  p, Sal vs. drug, Dunnett test: Immobility Time (min 1-6), Forced Swim Test Day 2: 0.1741
  p, Sal vs. drug, Dunnett test: Immobility Time (min 2), Forced Swim Test Day 2: 0.7390
  p, Sal vs. drug, Dunnett test: Immobility Time (min 4), Forced Swim Test Day 2: 0.4082
  p, Sal vs. drug, Dunnett test: Immobility Time (min 5), Forced Swim Test Day 2: 0.3770
  p, Sal vs. drug, Dunnett test: Immobility Time (min 6), Forced Swim Test Day 2: 0.8643
  p, Sal vs. drug, Dunnett test: Immobility Time Average (min 3-6), Forced Swim Test Day 2: 0.5537
[2]; 30 mg/kg
  p, Sal vs. drug, Fisher's PLSD: Immobility Time (min 1-6), Forced Swim Test Day 2: 0.0750
  p, Sal vs. drug, Fisher's PLSD: Immobility Time Average (min 3-6), Forced Swim Test Day 2: 0.3050
[2]; [7]
  p, Immobility Time (min 1): 0.9806
  p, Immobility Time (min 1-6): 0.1415
  p, Immobility Time (min 3): 0.9989
  p, Immobility Time (min 4): 0.9991
  p, Immobility Time (min 5): 0.9999
  p, Immobility Time (min 6): 0.9999
  p, Immobility Time Average (min 3-6): 0.9994
[2]; [8]
  * (significance), Immobility Time (min 3): * (* p<0.05)
  p, Immobility Time (min 1): 0.9957
  p, Immobility Time (min 1-6): 0.2256
  p, Immobility Time (min 3): 0.0470
  p, Immobility Time (min 4): 0.3636
  p, Immobility Time (min 5): 0.2596
  p, Immobility Time (min 6): 0.1488
  p, Immobility Time Average (min 3-6): 0.0733
[2]; Forced Swim Test Day 1, Dunnett test Sal vs. drug (30), 1 week prophylactic drug
  p, Immobility Time (min 1): 0.9955
